From patent US4061645A, “2-Trichloromethyl-5-methylsulfinyl-1,3,4-thiadiazole” (Schering Aktiengesellschaft, priority 1972, dated 1977)

test system: Asperqilus niger; experiment: Agar test (Example 7), Aspergillus; format: cell-based; conditions: 10 ppm; 5 days at 22° C; control 100
Experimental: (§1) The fungicidal action of the agents according to the invention was tested in artificial nutrient media against plant-pathogenic fungi in Petri dishes (agar test). The procedure was to sterilize the medium consisting of 2% malt extract and 1.5% agar-agar powder. Before the solidification of the medium, the active substances were added to it, mixing thoroughly, so that the medium received 10 parts of active substance per million (ppm). After the solidification of the medium, the latter was inoculated with a platinum dropper which contained 100 spores each of the fungi to be tested, and after five days at 22° C, an evaluation was made by measuring the diameter of the colonies in mm.

| SMILES | diameter of the colonies |
| --- | --- |
| CCCCC[S+]([O-])c1nnc(C(Cl)Cl)s1 (stereo not shown) [Compound 7, 2-dichloromethyl-5-amylsulfinyl-1,3,4-thiadiazole] | 0 mm |
| CC[S+]([O-])c1nnc(C(Cl)(Cl)Cl)s1 (stereo not shown) [Compound 9, 2-trichloromethyl-5-ethylsulfinyl-1,3,4-thiadiazole] | 0 mm |
| CCC[S+]([O-])c1nnc(C(Cl)(Cl)Cl)s1 (stereo not shown) [Compound 10, 2-trichloromethyl-5-propylsulfinyl-1,3,4-thiadiazole] | 0 mm |
| CCCC[S+]([O-])c1nnc(C(Cl)(Cl)Cl)s1 (stereo not shown) [Compound 12, 2-trichloromethyl-5-butylsulfinyl-1,3,4-thiadiazole] | 0 mm |
| CCCCCCC[S+]([O-])c1nnc(C(Cl)(Cl)Cl)s1 (stereo not shown) [Compound 13, 2-trichloromethyl-5-heptylsulfinyl-1,3,4-thiadiazole] | 0 mm |
| CCS(=O)(=O)c1nnc(C(Cl)(Cl)Cl)s1 [Compound 22, 2-trichloromethyl-5-ethylsulfonyl-1,3,4-thiadiazole] | 0 mm |
| CCCS(=O)(=O)c1nnc(C(Cl)(Cl)Cl)s1 [Compound 23, 2-trichloromethyl-5-propylsulfonyl-1,3,4-thiadiazole] | 0 mm |

test system: Helminthosporium sativum; experiment: Agar test (Example 7), Helminthosporium; format: cell-based; conditions: 10 ppm; 5 days at 22° C; control 100
Experimental: as §1

| SMILES | diameter of the colonies |
| --- | --- |
| CCCCC[S+]([O-])c1nnc(C(Cl)Cl)s1 (stereo not shown) [Compound 7, 2-dichloromethyl-5-amylsulfinyl-1,3,4-thiadiazole] | 0 mm |
| CC[S+]([O-])c1nnc(C(Cl)(Cl)Cl)s1 (stereo not shown) [Compound 9, 2-trichloromethyl-5-ethylsulfinyl-1,3,4-thiadiazole] | 0 mm |
| CCC[S+]([O-])c1nnc(C(Cl)(Cl)Cl)s1 (stereo not shown) [Compound 10, 2-trichloromethyl-5-propylsulfinyl-1,3,4-thiadiazole] | 0 mm |
| CCCC[S+]([O-])c1nnc(C(Cl)(Cl)Cl)s1 (stereo not shown) [Compound 12, 2-trichloromethyl-5-butylsulfinyl-1,3,4-thiadiazole] | 0 mm |
| CCCCCCC[S+]([O-])c1nnc(C(Cl)(Cl)Cl)s1 (stereo not shown) [Compound 13, 2-trichloromethyl-5-heptylsulfinyl-1,3,4-thiadiazole] | 0 mm |
| CCS(=O)(=O)c1nnc(C(Cl)(Cl)Cl)s1 [Compound 22, 2-trichloromethyl-5-ethylsulfonyl-1,3,4-thiadiazole] | 0 mm |
| CCCS(=O)(=O)c1nnc(C(Cl)(Cl)Cl)s1 [Compound 23, 2-trichloromethyl-5-propylsulfonyl-1,3,4-thiadiazole] | 0 mm |

test system: Fusarium oxysporum f. callistephi; experiment: Fusarium infested compost soil, Callistephus chinesis seedlings (Example 5); format: in vivo; conditions: 50 mg active ingredient per liter of soil; of 4 seedlings
Text: Steamed compost soil was inoculated with a spore suspension of Fusarium oxysporum f. callistephi. After homogeneous mixture of the products with the infested soil, the products were present as 20% powder preparations, and after a waiting period of 8 days, there were set out per concentration 4 seedlings of Callistephus chinesis, master aster "Sun Ray" as host plants.

| SMILES | Number of attacked plants after 3 weeks |
| --- | --- |
| CC[S+]([O-])c1nnc(C(Cl)(Cl)Cl)s1 (stereo not shown) [Compound 9, 2-trichloromethyl-5-ethylsulfinyl-1,3,4-thiadiazole] | 0 |
| CCS(=O)(=O)c1nnc(C(Cl)(Cl)Cl)s1 [Compound 22, 2-trichloromethyl-5-ethylsulfonyl-1,3,4-thiadiazole] | 0 |

same assay, conditions: 100 mg active ingredient per liter of soil; of 4 seedlings

| SMILES | Number of attacked plants after 3 weeks |
| --- | --- |
| CC[S+]([O-])c1nnc(C(Cl)(Cl)Cl)s1 (stereo not shown) [Compound 9, 2-trichloromethyl-5-ethylsulfinyl-1,3,4-thiadiazole] | 0 |
| CCS(=O)(=O)c1nnc(C(Cl)(Cl)Cl)s1 [Compound 22, 2-trichloromethyl-5-ethylsulfonyl-1,3,4-thiadiazole] | 0 |

test system: Botrytis cinerea; experiment: Agar test (Example 7), Botrytis; format: cell-based; conditions: 10 ppm; 5 days at 22° C; control 100
Experimental: as §1

| SMILES | diameter of the colonies |
| --- | --- |
| CCCCC[S+]([O-])c1nnc(C(Cl)Cl)s1 (stereo not shown) [Compound 7, 2-dichloromethyl-5-amylsulfinyl-1,3,4-thiadiazole] | 22 mm |
| CC[S+]([O-])c1nnc(C(Cl)(Cl)Cl)s1 (stereo not shown) [Compound 9, 2-trichloromethyl-5-ethylsulfinyl-1,3,4-thiadiazole] | 0 mm |
| CCC[S+]([O-])c1nnc(C(Cl)(Cl)Cl)s1 (stereo not shown) [Compound 10, 2-trichloromethyl-5-propylsulfinyl-1,3,4-thiadiazole] | 0 mm |
| CCCC[S+]([O-])c1nnc(C(Cl)(Cl)Cl)s1 (stereo not shown) [Compound 12, 2-trichloromethyl-5-butylsulfinyl-1,3,4-thiadiazole] | 0 mm |
| CCCCCCC[S+]([O-])c1nnc(C(Cl)(Cl)Cl)s1 (stereo not shown) [Compound 13, 2-trichloromethyl-5-heptylsulfinyl-1,3,4-thiadiazole] | 13 mm |
| CCS(=O)(=O)c1nnc(C(Cl)(Cl)Cl)s1 [Compound 22, 2-trichloromethyl-5-ethylsulfonyl-1,3,4-thiadiazole] | 0 mm |
| CCCS(=O)(=O)c1nnc(C(Cl)(Cl)Cl)s1 [Compound 23, 2-trichloromethyl-5-propylsulfonyl-1,3,4-thiadiazole] | 0 mm |

test system: Rhizoctonia solani; experiment: Rhizoctonia solani infested compost soil, marrow peas (Example 3); format: in vivo; conditions: 10 mg active ingr. per liter of soil; 3 weeks
Text: Steamed compost soil was inoculated with mycelium of Rhizoctonia solani. After homogeneous mixture of the products with the infested soil, the products were present in the form of 20% powder preparations, the seeding of 25 grains of marrow peas of the variety "Miracle of Kelvedon" per concentration was effected without waiting period in clay dishes holding 1 liter of soil. The table lists the number of germinated sound peas, the weight of the fresh plant, and a root evaluation after a cultivation period of three weeks at 22°-25° C.

| SMILES | Weight of fresh plant |
| --- | --- |
| CC[S+]([O-])c1nnc(C(Cl)(Cl)Cl)s1 (stereo not shown) [Compound 9, 2-trichloromethyl-5-ethylsulfinyl-1,3,4-thiadiazole] | 18 g |
| CCCS(=O)(=O)c1nnc(C(Cl)(Cl)Cl)s1 [Compound 23, 2-trichloromethyl-5-propylsulfonyl-1,3,4-thiadiazole] | 9 g |

same assay, conditions: 10 mg active ingr. per liter of soil; of 25 grains

| SMILES | Number of sound peas after 3 wks. |
| --- | --- |
| CC[S+]([O-])c1nnc(C(Cl)(Cl)Cl)s1 (stereo not shown) [Compound 9, 2-trichloromethyl-5-ethylsulfinyl-1,3,4-thiadiazole] | 22 |
| CCCS(=O)(=O)c1nnc(C(Cl)(Cl)Cl)s1 [Compound 23, 2-trichloromethyl-5-propylsulfonyl-1,3,4-thiadiazole] | 13 |

same assay, conditions: 20 mg active ingr. per liter of soil; 3 weeks

| SMILES | Weight of fresh plant |
| --- | --- |
| CC[S+]([O-])c1nnc(C(Cl)(Cl)Cl)s1 (stereo not shown) [Compound 9, 2-trichloromethyl-5-ethylsulfinyl-1,3,4-thiadiazole] | 16 g |
| CCCS(=O)(=O)c1nnc(C(Cl)(Cl)Cl)s1 [Compound 23, 2-trichloromethyl-5-propylsulfonyl-1,3,4-thiadiazole] | 17 g |

same assay, conditions: 20 mg active ingr. per liter of soil; of 25 grains

| SMILES | Number of sound peas after 3 wks. |
| --- | --- |
| CC[S+]([O-])c1nnc(C(Cl)(Cl)Cl)s1 (stereo not shown) [Compound 9, 2-trichloromethyl-5-ethylsulfinyl-1,3,4-thiadiazole] | 22 |
| CCCS(=O)(=O)c1nnc(C(Cl)(Cl)Cl)s1 [Compound 23, 2-trichloromethyl-5-propylsulfonyl-1,3,4-thiadiazole] | 21 |

same assay, conditions: 30 mg active ingr. per liter of soil; 3 weeks

| SMILES | Weight of fresh plant |
| --- | --- |
| CC[S+]([O-])c1nnc(C(Cl)(Cl)Cl)s1 (stereo not shown) [Compound 9, 2-trichloromethyl-5-ethylsulfinyl-1,3,4-thiadiazole] | 17 g |
| CCCS(=O)(=O)c1nnc(C(Cl)(Cl)Cl)s1 [Compound 23, 2-trichloromethyl-5-propylsulfonyl-1,3,4-thiadiazole] | 20 g |

same assay, conditions: 30 mg active ingr. per liter of soil; of 25 grains

| SMILES | Number of sound peas after 3 wks. |
| --- | --- |
| CC[S+]([O-])c1nnc(C(Cl)(Cl)Cl)s1 (stereo not shown) [Compound 9, 2-trichloromethyl-5-ethylsulfinyl-1,3,4-thiadiazole] | 23 |
| CCCS(=O)(=O)c1nnc(C(Cl)(Cl)Cl)s1 [Compound 23, 2-trichloromethyl-5-propylsulfonyl-1,3,4-thiadiazole] | 24 |

test system: Rhizoctonia solani; experiment: Limit concentration of soil-fungicidal effectiveness, Rhizoctonia solani, infested soil seeded with peas (Example 1); format: in vivo; conditions: soil, 480 h, 20 to 23 days, 22°-25° C, read-out: Limit concentration of the fungicidal effectiveness
Experimental: Limit concentrations of the soil-fungicidal effectiveness at homogeneous mixture of the products with the infested soil. Basic condition in the evaluation are a sound root formation without fungus necroses and germination of the seed of at least 90% compared with the result obtained in steamed soil. Per concentration there were seeded 25 grains of peas of the variety "Miracle of Kelvedon" (marrow pea) without a waiting period. The cultivation time in the tests was 20 to 23 days at a temperature of 22°-25° C. Four commercial products were included in the test series.
Rhizoctania solani: -- Steamed compost soil was inoculated with mycelium of Rhizoctonia solani.

| SMILES | minimal effective concentration |
| --- | --- |
| CCCCC[S+]([O-])c1nnc(C(Cl)Cl)s1 (stereo not shown) [Compound 7, 2-dichloromethyl-5-amylsulfinyl-1,3,4-thiadiazole] | 50 µg/mL |
| CC[S+]([O-])c1nnc(C(Cl)(Cl)Cl)s1 (stereo not shown) [Compound 9, 2-trichloromethyl-5-ethylsulfinyl-1,3,4-thiadiazole] | 10 µg/mL |
| CCC[S+]([O-])c1nnc(C(Cl)(Cl)Cl)s1 (stereo not shown) [Compound 10, 2-trichloromethyl-5-propylsulfinyl-1,3,4-thiadiazole] | 20 µg/mL |
| CCCC[S+]([O-])c1nnc(C(Cl)(Cl)Cl)s1 (stereo not shown) [Compound 12, 2-trichloromethyl-5-butylsulfinyl-1,3,4-thiadiazole] | 50 µg/mL |
| CCCCCCC[S+]([O-])c1nnc(C(Cl)(Cl)Cl)s1 (stereo not shown) [Compound 13, 2-trichloromethyl-5-heptylsulfinyl-1,3,4-thiadiazole] | 200 µg/mL |
| CCS(=O)(=O)c1nnc(C(Cl)(Cl)Cl)s1 [Compound 22, 2-trichloromethyl-5-ethylsulfonyl-1,3,4-thiadiazole] | 50 µg/mL |
| CCCS(=O)(=O)c1nnc(C(Cl)(Cl)Cl)s1 [Compound 23, 2-trichloromethyl-5-propylsulfonyl-1,3,4-thiadiazole] | 30 µg/mL |

test system: Stemphylium ilicis; experiment: Agar test (Example 7), Stemphylium; format: cell-based; conditions: 10 ppm; 5 days at 22° C; control 100
Experimental: as §1

| SMILES | diameter of the colonies |
| --- | --- |
| CCCCC[S+]([O-])c1nnc(C(Cl)Cl)s1 (stereo not shown) [Compound 7, 2-dichloromethyl-5-amylsulfinyl-1,3,4-thiadiazole] | 0 mm |
| CC[S+]([O-])c1nnc(C(Cl)(Cl)Cl)s1 (stereo not shown) [Compound 9, 2-trichloromethyl-5-ethylsulfinyl-1,3,4-thiadiazole] | 0 mm |
| CCC[S+]([O-])c1nnc(C(Cl)(Cl)Cl)s1 (stereo not shown) [Compound 10, 2-trichloromethyl-5-propylsulfinyl-1,3,4-thiadiazole] | 0 mm |
| CCCC[S+]([O-])c1nnc(C(Cl)(Cl)Cl)s1 (stereo not shown) [Compound 12, 2-trichloromethyl-5-butylsulfinyl-1,3,4-thiadiazole] | 0 mm |
| CCCCCCC[S+]([O-])c1nnc(C(Cl)(Cl)Cl)s1 (stereo not shown) [Compound 13, 2-trichloromethyl-5-heptylsulfinyl-1,3,4-thiadiazole] | 0 mm |
| CCS(=O)(=O)c1nnc(C(Cl)(Cl)Cl)s1 [Compound 22, 2-trichloromethyl-5-ethylsulfonyl-1,3,4-thiadiazole] | 0 mm |
| CCCS(=O)(=O)c1nnc(C(Cl)(Cl)Cl)s1 [Compound 23, 2-trichloromethyl-5-propylsulfonyl-1,3,4-thiadiazole] | 0 mm |

test system: Colletotrichum gloeosporioides; experiment: Agar test (Example 7), Colletotrichum; format: cell-based; conditions: 10 ppm; 5 days at 22° C; control 100
Experimental: as §1

| SMILES | diameter of the colonies |
| --- | --- |
| CCCCC[S+]([O-])c1nnc(C(Cl)Cl)s1 (stereo not shown) [Compound 7, 2-dichloromethyl-5-amylsulfinyl-1,3,4-thiadiazole] | 0 mm |
| CC[S+]([O-])c1nnc(C(Cl)(Cl)Cl)s1 (stereo not shown) [Compound 9, 2-trichloromethyl-5-ethylsulfinyl-1,3,4-thiadiazole] | 0 mm |
| CCC[S+]([O-])c1nnc(C(Cl)(Cl)Cl)s1 (stereo not shown) [Compound 10, 2-trichloromethyl-5-propylsulfinyl-1,3,4-thiadiazole] | 0 mm |
| CCCC[S+]([O-])c1nnc(C(Cl)(Cl)Cl)s1 (stereo not shown) [Compound 12, 2-trichloromethyl-5-butylsulfinyl-1,3,4-thiadiazole] | 0 mm |
| CCCCCCC[S+]([O-])c1nnc(C(Cl)(Cl)Cl)s1 (stereo not shown) [Compound 13, 2-trichloromethyl-5-heptylsulfinyl-1,3,4-thiadiazole] | 0 mm |
| CCS(=O)(=O)c1nnc(C(Cl)(Cl)Cl)s1 [Compound 22, 2-trichloromethyl-5-ethylsulfonyl-1,3,4-thiadiazole] | 0 mm |
| CCCS(=O)(=O)c1nnc(C(Cl)(Cl)Cl)s1 [Compound 23, 2-trichloromethyl-5-propylsulfonyl-1,3,4-thiadiazole] | 0 mm |
